Test results published in patent US20230181027A1, “METHODS AND MATERIALS FOR TREATING NEUROMYELITIS OPTICA SPECTRUM DISEASES” (Mayo Foundation for Medical Education and Research, priority 2019, published 2023).

What was measured:
murine model of NMO = test: Rotarod test (latency to fall) in murine model of NMO with intrathecal NMO-IgG infusion; type: in vivo, mice
From the text: To investigate the cellular and molecular mechanisms underlying NMO pathology, a murine model was developed that utilizes IgG purified from NMO patient serum (NMO-IgG) or monoclonal AQP4-specific IgG. IgG collected from healthy individuals, or from healthy control subjects (control-IgG), or a control monoclonal IgG of irrelevant specificity was used in each experiment. NMO-IgG and control-IgG was purified by protein G adsorption (FIG. 1). An osmotic mini-pump delivery system loaded with either NMO-IgG, AQP4-IgG or control-IgG was placed subcutaneously and IgG was infused continuously into the spinal subarachnoid space via intrathecal catheter for 5 to 7 days (FIG. 2A). […] Gait analysis was also performed using ink tracking as described elsewhere (see, e.g., Zhang et al., J. Autoimmun. 53:67-77 (2014)). […] After 5 days of either […], 3 µg/µL, or 1 µg/µL NMO-IgG treatment, stride lengths decreased from an average of 5.7 cm to 2.6, 3.8, and 5.0 cm respectively (FIGS. 2C and 2D).
A 3.5 cm polyurethane-silicone catheter (Alzet, CA) was inserted at the condylar canal to accesses the subarachnoid space at the cisterna magna and extended to lumbar level of spinal cord. Five days later an osmotic mini-pump delivery system, containing either NMO-IgG or control-IgG, was placed subcutaneously over the right shoulder. IgG was delivered continuously for 5-7 days (1-10 µg/day) (FIG. 2A).
The rotarod tests were performed using a five-lane Rotarod apparatus (Med Assocaites Inc). The rotarod speed started from 4 rounds per minute and uniformly accelerated to 40 rounds per minute over 5 minutes. Each mouse was tested for 3 times with 15 minute intervals. For gait analysis, mouse fore and hind limbs were covered by different color ink and allowed to walk freely across a narrow strip of paper. Stride length of hind limbs was reported as the mean of 5 sequential steps.
Minocycline hydrochloride was dissolved in PBS with 1% DMSO at 30 µg/µL and mixed with 20 µg/µL NMO-IgG to make a mixture of 15 µg/µL minocycline and 10 µg/µL NMO-IgG. […]

microglia [1] = test: Iba1 immunostaining of spinal cord microglia (activation or depletion); type: in vivo, mice
From the text: To examine microglial activation in our murine model of NMO, genetic labeling of microglia (CX3CR1^GFP/+) and immunostaining for the microglial marker Iba1 were used. […] In addition, NMO-IgG induced striking morphological transition of microglia, from “resting” ramified to “activated” bushy phenotype in time-dependent manner (FIG. 4C).
Microglial activation after NMO-IgG infusion indicates a potential role for microglia in NMO pathogenesis. To test this idea, microglia ablation approaches were utilized to directly examine the requirement of microglia in NMO-induced motor deficits. […].
TM (Sigma) was administered as a solution in corn oil (Sigma) to mice over 4 weeks of age via i.p. injection. Animals received four doses of TM (150 mg kg^-1, 20 mg mL^-1 in corn oil) in 48 hour intervals. […] Mice administered with DT only (without TM) were used as control for all ablation experiments.
(§1) Mice were deeply anaesthetized with isoflurane (5% in O2) and perfused transcardially with 20 mL PBS followed by 20 mL of cold 4% paraformaldehyde (PFA) in PBS. The spinal cord was removed and post-fixed with 4% PFA for 6 hours at 4° C. Samples were then transferred to 30% sucrose in PBS overnight. […] Cell counting and fluorescent signal intensity was quantified using ImageJ software (National Institutes of Health, Bethesda, MD).
Quantification of Iba1 cells was done with ImageJ software (NIH Image). […]

microglia [2] = test: In situ microglial process chemoattraction assay (C3a-containing pipettes); type: cell-based, mice
Procedure: The cleavage of the complement component C3 produces two signaling molecules, C3a and C3b.
Hippocampal tissue slices ([…] thick) were prepared from P14-21 mice and incubated in imaging media. Microglia were visualized by GFP. For each image in the time-series, 15 z-steps spaced […] apart were collected per image ([…] total depth). Images were taken at 5 minute intervals for up to 1 hour on Scientifica 2-photon microscope with an X20 lens. Image processing and analysis was performed using NIH Image J software.

[3] = tested on: microglia-astrocyte interaction; test: Microglia-astrocyte interaction (Iba1/GFAP or CX3CR1-GFP/GFAP overlap) in L4 spinal cord; type: in vivo, mice; conditions: intrathecal, 150 µg/day, with NMO-IgG infusion
From the text: However, the question remains as to what cellular and molecular mechanisms underlie microglial function in NMO. […] Under control conditions, GFAP^+ astrocytes rarely overlap with Iba1^+ microglia. However, spatial overlapping was abundant after NMO-IgG exposure. […] Specifically, on average only 17% of microglia interact with astrocytes under control conditions while 65% of microglia overlap with astrocytes after NMO-IgG infusion.
as §1, with “overnight. Sample sections ([…] in thickness) were prepared on gelatin-coated glass slide with a cryostat (Leica).” for “overnight.”

astrocyte complement C3 = test: Complement C3 and GFAP double staining of astrocytes in L4 spinal cord; type: in vivo, mice; conditions: minocycline co-infusion with NMO-IgG
From the text: Astrocytes exposed in culture to NMO-IgG increase their production and secretion of all complement components, except C1q, which is made by activated microglia (see, Howe et al., Glia 62:692-708 (2014)). […] In contrast, C3 expression was principally restricted to the lumen of blood vessels following control-IgG exposure. The percentage of C3^+ astrocytes in spinal cord of mice receiving NMO-IgG was ~5-fold higher than that of control-IgG recipients (FIG. 10A). C3 upregulation in astrocytes is independent of microglia, as a similar C3 increase was found after microglia ablation (FIG. 11).
as §1, with “overnight. Sample sections ([…] in thickness) were prepared on gelatin-coated glass slide with a cryostat (Leica).” for “overnight.”

FC(F)(F)c1ccc(CNc2ccc(Cc3c[nH]c4ncc(Cl)cc34)cn2)cn1 [PLX3397, Pexidartinib]
motor function after NMO-IgG infusion (rotarod) versus control chow-treated group (murine model of NMO; PLX3397 chow started 7 days before NMO-IgG infusion): significantly better | depletion of microglia in the L4 spinal cord (Iba1+ cell density) (microglia [1]; PLX3397 chow, day 5 after NMO-IgG infusion, versus control chow): eliminated most of the microglia

diphtheria toxin
depletion of spinal microglia (microglia [1]; CX3CR1CreER/+:R26iDTR/+ mice after tamoxifen, 1 to 3 days after DT 50 µg/Kg i.p.): mostly depleted

C3a: signaling molecule produced by cleavage of complement component C3
time to induce microglial process chemotaxis (microglia [2]): ≤ 30 min

CN(C)c1ccc(O)c2c1C[C@H]1C[C@H]3[C@H](N(C)C)C(O)=C(C(N)=O)C(=O)[C@@]3(O)C(O)=C1C2=O [minocycline]
effect on NMO-IgG induced motor dysfunction in rotarod test (murine model of NMO; intrathecal, 150 µg/day, co-infused with NMO-IgG): prevented the NMO-IgG induced motor dysfunction | effect on motor impairment when given after onset (murine model of NMO; systemic injection after 2 days of NMO-IgG infusion): reversed the motor impairment | effect on microglia-astrocyte interaction [3]: reduced microglia-astrocyte interaction | effect on NMO-IgG upregulation of astrocyte complement C3 (astrocyte complement C3): not altered
